{"source": "patent US20240417745A1", "about": "“SYSTEMS AND METHODS FOR SEEDLESS FRUIT TRAIT” (Duke University, priority 2023, published 2024)", "system": "−2 DAA WT ovaries", "assay": "RNA-seq of −2 DAA WT ovaries treated with 2,4-D vs mock", "assay_type": "in vivo, Tomato (Solanum lycopersicum)", "conditions": "100 μM 2,4-D, fold change >1.5, p<0.05", "procedure": "Tomato plants were grown in greenhouse with 16 h day/8 h night light cycle as described previously (Hu et al.). Parthenocarpy test was done as described previously in Hu et al., with some modifications: −2 DAA flowers on mature tomato plants (2-6 weeks after first flowering) were emasculated and recorded fruit growth 5 weeks later; fruit diameter of at least 1 cm was considered as parthenocarpy. For fruit yield analysis, the number of flowers were counted for each young flower cluster of ˜two-month-old plants, and fruits developed on these clusters were harvested individually and weighed when they were at the red ripe stage. Whole plant phenotypes including plant height, internode numbers and length, and leaf morphology were recorded 5 weeks after sowing. For 2,4-D treatment, 10 μl of 100 μM 2,4-D, or mock solvent (5% MeOH, 0.1% Tween-20) was applied to −2 DAA ovaries of emasculated flowers. All statistical analyses were performed using Student's t-test.\nTotal RNAs were purified from −2 DAA ovaries of WT and 8a-1 8b-1, as well as −2 DAA WT ovaries treated with 100 μM 2,4-D for 2/6/24 h or mock treated (5% methanol, 0.1% Tween 20). RNA-Seq cDNA libraries (three biological repeats) were prepared with the QuantSeq 3′mRNA-Seq library prep kit FWD for Illumina (Lexogen). DNA sequencing was performed with Illumina Next-Seq500 High-Output 75 bp SR. Sequence alignment and DE (differential expression) analysis were done online at lexogen.bluebee.com. Heatmap was created in RStudio with plotly package. Co-regulated genes among 8a 8b and +2,4-D 2/6/24 h gene lists were then identified (fold change >1.5; p<0.1 for 8a 8b vs. WT; p<0.05 for +2,4-D vs. mock). Venn Diagrams were made using online tool at InteractiVenn.net^53. GO analysis was performed using agriGO v2 toolkit (Tian et al. agriGO v2.0: a GO analysis toolkit for the agricultural community, 2017 update. Nucleic Acids Res 45, W122-W129, (2017)). Heatmap analysis was made in R language with the plotly package. […]"}
{"smiles": "O=C(O)COc1ccc(Cl)cc1Cl", "note": "[2,4-D]", "values": [{"measurement": "number of auxin-responsive differentially expressed genes (DEG)", "setting": "2 h treatment vs mock", "result": 1731}, {"measurement": "number of auxin-responsive differentially expressed genes (DEG)", "setting": "6 h treatment vs mock", "result": 3262}, {"measurement": "number of auxin-responsive differentially expressed genes (DEG)", "setting": "24 h treatment vs mock", "result": 3212}]}
